Measured values reported in ChEMBL document CHEMBL1201862, “PubChem BioAssay data set” (2004).
Active and inactive are the calls of the source.

Assays:
[1] = molecular target: FAD-linked sulfhydryl oxidase ALR (Homo sapiens, UniProt P55789); experiment: inhibitors of human ALR sulfhydryl oxidase, dose response, biochemical, H2O2 detection, luminescence, cherry-pick (AID 493248)
[2] = Luminescence Cell-Based Dose Retest to Confirm Inhibitors of Cancer Stem Cells. [Related pubchem assays (depositor defined):AID2717, AID2721]; assay type: functional; conditions: Homo sapiens
[3] = molecular target: T1, Protein skinhead-1 (Caenorhabditis elegans, UniProt P34707); assay type: functional
T1 sequence (P34707 whole entry): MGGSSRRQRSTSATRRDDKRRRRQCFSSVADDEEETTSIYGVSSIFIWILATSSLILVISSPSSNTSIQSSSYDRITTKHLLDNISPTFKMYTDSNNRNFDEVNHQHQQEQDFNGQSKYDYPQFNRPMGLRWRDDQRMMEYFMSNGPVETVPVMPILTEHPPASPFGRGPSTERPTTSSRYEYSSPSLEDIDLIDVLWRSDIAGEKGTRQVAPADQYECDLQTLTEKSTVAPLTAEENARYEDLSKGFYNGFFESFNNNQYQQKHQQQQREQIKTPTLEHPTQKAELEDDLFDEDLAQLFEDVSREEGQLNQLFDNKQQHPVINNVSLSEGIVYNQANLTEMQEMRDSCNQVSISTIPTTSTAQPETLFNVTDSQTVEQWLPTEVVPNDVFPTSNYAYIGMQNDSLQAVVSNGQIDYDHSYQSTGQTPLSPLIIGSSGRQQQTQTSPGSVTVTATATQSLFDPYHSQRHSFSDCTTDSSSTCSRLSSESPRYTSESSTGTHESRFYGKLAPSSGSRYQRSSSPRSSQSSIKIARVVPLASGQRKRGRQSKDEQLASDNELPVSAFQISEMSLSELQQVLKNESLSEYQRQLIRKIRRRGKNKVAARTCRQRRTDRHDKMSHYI

[4] = test system: H4; experiment: Luminescence Cell-Based Dose Response HTS to Identify Activators of 5'UTR Stem-Loop Driven Prion Protein mRNA Translation in H4 Neuroglioblastoma Cells. [Related pubchem assays: 1829 (Project Summary), 1814 (Primary HTS)]; assay type: functional; conditions: Homo sapiens
[5] = test system: INS1; experiment: beta cell apoptosis inhibitors, cytokine rescue, dose response, luminescence, retest (AID 449756); assay type: functional, cell-based; conditions: Rattus norvegicus;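 also: cell death triggered by IL-1 beta plus TNF-alpha plus IFN-gamma mixture; protective hits raise ATP signal compared with cytokine alone wells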
[6] = cytotoxicity toward NIH3T3 fibroblasts, dose response, counter-screen, cell-based, ATP luminescence, mouse fibroblasts (AID 2010); assay type: functional;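 also: cells exposed to compound for about 90 hours before reading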
[7] = molecular target: T2, Rac GTPase-activating protein 1 (Homo sapiens, UniProt Q9H0H5); experiment: MgcRacGAP GTPase-activating activity inhibitors, confirmation, biochemical, ADP Hunter fluorescence, primary and confirmatory (AID 624330); assay type: functional
T2 sequence (Q9H0H5 whole entry): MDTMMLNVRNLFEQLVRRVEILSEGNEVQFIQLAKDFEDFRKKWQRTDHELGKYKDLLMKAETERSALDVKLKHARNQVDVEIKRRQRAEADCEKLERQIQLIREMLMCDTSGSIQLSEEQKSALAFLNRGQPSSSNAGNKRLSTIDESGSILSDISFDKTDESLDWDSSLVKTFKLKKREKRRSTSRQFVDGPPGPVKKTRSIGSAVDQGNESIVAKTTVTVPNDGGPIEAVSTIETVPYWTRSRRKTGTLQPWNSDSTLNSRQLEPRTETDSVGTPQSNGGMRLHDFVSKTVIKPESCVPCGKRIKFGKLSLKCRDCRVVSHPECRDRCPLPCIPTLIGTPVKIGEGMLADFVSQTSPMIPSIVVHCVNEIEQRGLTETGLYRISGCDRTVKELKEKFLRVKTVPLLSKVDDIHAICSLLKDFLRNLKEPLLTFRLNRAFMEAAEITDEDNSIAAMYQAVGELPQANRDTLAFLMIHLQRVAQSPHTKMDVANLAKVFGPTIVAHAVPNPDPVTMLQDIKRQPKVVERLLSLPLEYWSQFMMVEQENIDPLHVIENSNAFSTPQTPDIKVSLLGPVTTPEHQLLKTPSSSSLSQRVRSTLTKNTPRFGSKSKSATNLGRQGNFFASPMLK

[8] = inhibitors of intracellular T. cruzi replication, confirmation, NIH3T3 host cells, beta-gal luminescence (AID 2044); assay type: functional, cell-based;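 also: intracellular parasites grown in NIH/3T3 mouse fibroblasts as host cells; luminescent beta-galactosidase reporter signal from transgenic T. cruzi replicating inside host cells; inhibitors lower the luminescence signal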
[9] = molecular target: Paired box protein Pax-8 (Homo sapiens, UniProt Q06710); experiment: inhibitors of PAX8-driven TPO luciferase reporter, dose response, RMG-I cells, cherry-pick (AID 687027); assay type: functional, cell-based;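 also: luciferase reporter driven by Pax8 target thyroperoxidase promoter measured by SteadyGlo luminescence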
[10] = test system: Streptococcus; experiment: Group A Streptococcus viability loss, dose response, counter-screen for streptokinase expression inhibitor project, luminescence, BacTiterGlo (AID 1915); assay type: functional, organism-based;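 also: potency for reduction of bacterial viability or growth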
[11] = molecular target: T3, Streptokinase A (Streptococcus pyogenes serotype M1, UniProt P10520); experiment: S. pyogenes streptokinase expression inhibitors, potency, dose response, plasminogen activation absorbance, OD405 (AID 1914); assay type: functional, Streptococcus pyogenes M1 GAS;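 also: secreted streptokinase activity via plasminogen activation per viability signal from cell pellet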
T3 sequence (P10520 whole entry): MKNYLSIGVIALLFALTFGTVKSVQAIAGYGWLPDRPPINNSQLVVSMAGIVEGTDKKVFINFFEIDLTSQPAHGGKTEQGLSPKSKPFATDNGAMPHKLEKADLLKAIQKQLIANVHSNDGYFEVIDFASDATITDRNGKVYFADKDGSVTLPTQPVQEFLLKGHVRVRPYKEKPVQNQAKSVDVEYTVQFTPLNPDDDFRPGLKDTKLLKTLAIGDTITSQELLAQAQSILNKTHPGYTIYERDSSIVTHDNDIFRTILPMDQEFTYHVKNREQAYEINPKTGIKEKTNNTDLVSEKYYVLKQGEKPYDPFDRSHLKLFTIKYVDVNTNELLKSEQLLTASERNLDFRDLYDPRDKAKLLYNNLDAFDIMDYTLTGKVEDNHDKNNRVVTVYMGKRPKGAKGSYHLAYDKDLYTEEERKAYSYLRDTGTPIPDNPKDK

[12] = test system: Streptococcus sp. 'group A'; experiment: growth inhibition of control SK(-) GAS strain, dose response, counter-screen for streptokinase expression inhibitor project, luminescence, kanamycin, BacTiterGlo, confirmation (AID 1900); assay type: functional, organism-based

Chain of FAD-linked sulfhydryl oxidase ALR (P55789 whole entry): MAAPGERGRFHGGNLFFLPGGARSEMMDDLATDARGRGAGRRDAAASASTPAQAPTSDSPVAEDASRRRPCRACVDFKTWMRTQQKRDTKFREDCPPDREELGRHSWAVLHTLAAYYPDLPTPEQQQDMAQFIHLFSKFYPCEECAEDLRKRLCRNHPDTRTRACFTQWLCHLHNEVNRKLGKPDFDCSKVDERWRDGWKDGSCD
Chain of Paired box protein Pax-8 (Q06710 whole entry): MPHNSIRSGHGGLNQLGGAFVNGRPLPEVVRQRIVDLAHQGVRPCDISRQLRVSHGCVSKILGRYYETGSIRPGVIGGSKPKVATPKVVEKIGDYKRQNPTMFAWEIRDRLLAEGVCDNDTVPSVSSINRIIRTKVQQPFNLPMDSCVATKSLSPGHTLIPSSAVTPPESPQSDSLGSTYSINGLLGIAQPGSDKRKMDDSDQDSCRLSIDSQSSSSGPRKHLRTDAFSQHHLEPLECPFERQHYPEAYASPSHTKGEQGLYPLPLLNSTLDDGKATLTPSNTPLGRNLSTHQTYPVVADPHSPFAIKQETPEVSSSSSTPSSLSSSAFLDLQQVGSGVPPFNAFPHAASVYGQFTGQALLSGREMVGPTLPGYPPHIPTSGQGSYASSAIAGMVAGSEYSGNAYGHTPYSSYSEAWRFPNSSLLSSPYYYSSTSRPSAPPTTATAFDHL

O=C(Nc1c(C(=O)O)[nH]c2ccccc12)NC1CCCCC1
AC50 [1]: 1.26 µM (active)

O=S(=O)(Nc1cc(O)nc(SCc2ccc(Cl)cc2)n1)c1ccccc1
AC50 [2]: 4.07 µM (active)

COC(=O)c1c(-c2ccccc2)noc1-c1ccccc1
IC50 [3]: 58.6 µM (inactive)

O=[N+]([O-])c1cc2c(cc1Br)-c1ccccc1C2
IC50 [3]: > 100 µM (inactive)

O=C(NC1CCN(C(=S)Nc2ccc(Cl)cc2)CC1)c1ccco1
IC50 [3]: > 100 µM (inactive)

COc1ccccc1C(=O)COC(=O)c1ccc(N(C)C)cc1
EC50 [4]: 1.79 µM (active)

Brc1ccc(-[n+]2c(-c3ccccc3)cc(-c3ccccc3)cc2-c2ccccc2)cc1.[O-][Cl+3]([O-])([O-])[O-]
AC50 [5]: 2.04 µM (active)

Cc1cc(NS(=O)(=O)c2ccc(NC(=O)c3cc(-c4cccnc4)nc4ccc(Cl)cc34)cc2)no1
IC50 [3]: > 100 µM (inactive)

Cc1cc(C)c(OCCOCCN2CCNCC2)c(C)c1
IC50 [3]: > 100 µM (inactive)

Cc1ccc(/C(C#N)=C\c2ccc(N3CCOCC3)o2)cc1
EC50 [6]: > 60 µM (inconclusive) | IC50 [7]: 65.6 µM (active) | EC50 [8]: 4.37 µM (active)

CC(C)N1CCN(C(=O)c2cccc(Cl)c2)CC1
IC50 [7]: 295 µM (active)

C[C@@H]1CCCCO[C@@H](CN(C)C(=O)Cc2ccccc2)[C@@H](C)CN([C@@H](C)CO)C(=O)c2cc(NC(=O)Nc3ccc(C(F)(F)F)cc3)ccc2O1
AC50 [9]: 4.87 µM (active)

Cc1ccc(CSCC(=O)N2CCOCC2)cc1
IC50 [3]: > 100 µM (inactive)

CCCS(=O)(=O)NCc1ccc2c(c1)cc(C)n2C
IC50 [3]: > 100 µM (inactive)

CCOC(=O)N1CCN(S(=O)(=O)c2ccc(C(=O)NNc3nc4ccc(Cl)cc4s3)cc2)CC1
AC50 [5]: 3.39 µM (active)

CCn1c(C)nc2cc(C(=O)NNC(=S)NC(=O)c3ccc(OC)cc3)ccc21
EC50 [10]: 95.3 µM (active) | EC50 [11]: > 150 µM (not active) | EC50 [12]: 9.55 µM (active)

CCN(CC)c1ccc(CN2CCC(C(=O)NCc3ccc(C)cc3)CC2)cc1
AC50 [1]: 5.7 µM (active)

CCn1c2ccccc2c2cc(NS(=O)(=O)c3ccc(C)cc3)ccc21
AC50 [2]: 2.87 µM (active)

Fc1ccc(Nc2c3c(nc4ccccc24)CCC3)cc1
EC50 [6]: > 60 µM (inconclusive) | AC50 [1]: 6.31 µM (active) | EC50 [8]: 2.48 µM (active)

CCOC(=O)c1c(-c2ccccc2)csc1NC(=O)c1nn(CC)cc1Br
EC50 [6]: > 60 µM (not active) | AC50 [2]: 0.506 µM (active) | EC50 [8]: 2.06 µM (active)

CC1CCC2C(C1)Nc1c(C(=O)O)cccc1C2(C)C (stereo not given)
AC50 [1]: 4.55 µM (active)

Nc1ccc(OCCc2ccccc2)cc1
IC50 [7]: 31.2 µM (active)

O=C(c1cc(-c2cccs2)nc2ccccc12)N1CCN(c2ccccc2O)CC1
EC50 [10]: 54.8 µM (active) | EC50 [11]: 144 µM (active) | EC50 [12]: 21.8 µM (active)

CN1c2ccc(-c3ccc(C#N)cc3)cc2[C@@H]2[C@@H](CCN2C(=O)NC2CCCCC2)[C@@H]1CO
AC50 [9]: 19.9 µM (active)

COc1ccc(-c2sc3ccccc3c2C#CC2(O)CCCCC2)cc1
AC50 [2]: 3.73 µM (active) | EC50 [10]: 8.22 µM (active) | EC50 [11]: 6.81 µM (active) | EC50 [12]: 3.52 µM (active)

Cc1ccc(S(=O)(=O)N2CC=C(c3c(C)n(C)c4ccccc34)CC2)cc1
IC50 [3]: > 100 µM (inactive)

Cc1sc2ncnc(N3CCC(C(=O)Nc4ccc(Cl)cc4Cl)CC3)c2c1C
EC50 [10]: 66 µM (active) | EC50 [11]: 91.7 µM (active) | EC50 [12]: 23.6 µM (active)

Cc1cc(S(=O)(=O)Nc2ccc(N(C)C)cc2)c(C)s1
AC50 [1]: 0.704 µM (active)

CCN(CC)S(=O)(=O)c1ccc(/N=N/c2c(C)[nH]n(C(N)=S)c2=O)cc1
AC50 [1]: 0.782 µM (active)

COCc1cc(C)nc(OCC(=O)N/N=C/c2ccc(O)cc2)c1C#N
IC50 [7]: 83.2 µM (active)

COc1ccc(CNc2ncc(-c3ccc(Br)cc3)n2C)cc1OC
IC50 [7]: 55.6 µM (active)

COc1cc(/C=C/c2cc(C(=O)O)c3ccccc3n2)cc(OC)c1O
AC50 [1]: 0.141 µM (active)

CCC(=O)NNc1ccc(Br)cc1
AC50 [2]: 1.82 µM (active)

COc1ccc(N2C(=O)CSC2c2ccccc2[N+](=O)[O-])cc1 (stereo not given)
AC50 [1]: 4.55 µM (active)

C/C(=N\NC(=S)Nc1ccc(F)cc1)c1ccc2c(c1)OCCO2
AC50 [2]: 1.02 µM (active)

Cc1cc(C)cc(N2C(=O)CSC2c2ccccn2)c1 (stereo not given)
AC50 [1]: 0.731 µM (active)

COc1ccc(-c2nn(CC(=O)Nc3ccc(Cl)c(Cl)c3)c(=O)c3ccccc23)cc1
IC50 [3]: > 100 µM (inactive)

CCOC(=O)c1c(N)sc2c(OC)c(Br)ccc12
IC50 [7]: 203 µM (active)

CN(CC(=O)Nc1ccccc1Cl)C(=O)c1cccc(-n2cccc2)c1
AC50 [2]: > 195 µM (inactive)

Cc1ccc(-n2nnnc2SCC(=O)c2cc(C)n(-c3cc(C)on3)c2C)c(C)c1
EC50 [10]: > 150 µM (not active) | EC50 [11]: 89.2 µM (active) | EC50 [12]: 25.6 µM (active)

O=C(CN1CCN(S(=O)(=O)c2ccccc2F)CC1)N1CCc2ccccc2C1
IC50 [7]: 47.1 µM (active)

CCCCn1ccnc1C(=O)c1cccc(S(=O)(=O)N2c3ccccc3CC2C)c1 (stereo not given)
IC50 [3]: > 100 µM (inactive)

CN1C(=O)N(c2ccccc2)C(Nc2nncs2)C1(C)C (stereo not given)
IC50 [3]: > 100 µM (inactive)

C/C(N=Nc1ccccc1O)=N\Nc1nc2ccccc2s1
AC50 [2]: 3.71 µM (active)

CCN(CC)c1ccc(S(=O)(=O)Nc2cc(Cl)ccc2Cl)cc1NC(=S)NC(=O)C1CCCC1
AC50 [2]: 1.65 µM (active)

Cc1cc(NC(=O)c2cnccn2)no1
EC50 [10]: > 150 µM (not active) | EC50 [11]: > 150 µM (not active) | EC50 [12]: > 150 µM (not active)

O=C(c1c(Cl)cccc1Cl)N1CCN(c2cccc3[nH]ccc23)CC1
IC50 [7]: 50.4 µM (active)

Cc1ccc(-c2nc3nc(O)cc(NC(=O)c4cccs4)n3n2)cc1
EC50 [10]: > 150 µM (not active) | EC50 [11]: > 150 µM (not active) | EC50 [12]: 15.4 µM (active)

CCN1CCN(CC(=O)Nc2nc3ccccc3s2)CC1
IC50 [7]: 55.7 µM (active)

COc1ccc(C2(c3ccc(OC)cc3)NC(=O)N(CC(=O)NC3CCS(=O)(=O)C3)C2=O)cc1 (stereo not given)
IC50 [3]: > 100 µM (inactive)

C[C@@H]1CN([C@H](C)CO)C(=O)c2cc(NC(=O)Nc3ccccc3)ccc2O[C@@H](C)CCCCO[C@H]1CN(C)Cc1ccc(Cl)c(Cl)c1
AC50 [9]: 7.42 µM (active)

Oc1ccc2c(ccc3[nH]cnc32)c1
IC50 [7]: 43.9 µM (active)

COc1cc(/C=N/NC(=O)c2cccc(N3CCCC3=O)c2)ccc1O
AC50 [1]: 2.71 µM (active) | IC50 [7]: 30.9 µM (active)
